From ChEMBL document CHEMBL1154059, “Synthesis and biological evaluation of novel 4,5-bis(dialkylaminoalkyl)-substituted acridines as potent telomeric G-quadruplex ligands” (Eur J Med Chem, 2009) come the findings set out here.

The subject of test [1] is Nucleic Acid. Nature of the test: Binding affinity to human telomeric DNA G-quadruplex assessed as change in melting temperature at 20 uM by FRET assay. The test is classed as nucleic-acid assay.
Test [2] deals with Nucleic Acid. Kind of test: Binding affinity to human telomeric DNA G-quadruplex assessed as change in melting temperature at 5 uM by FRET assay. The test is classed as nucleic-acid assay.
The target in test [3] is Telomerase reverse transcriptase (Homo sapiens, UniProt O14746). Nature of the test: Inhibition of human telomerase in HT1080 cells by TRAP assay.
Test [4] relates to Nucleic Acid. Kind of test: Binding affinity to human telomeric DNA G-quadruplex assessed as change in melting temperature at 1 uM by FRET assay. Format: nucleic-acid assay.
Test [5] has as its system Nucleic Acid. Kind of test: Binding affinity to human telomeric DNA G-quadruplex assessed as change in melting temperature at 10 uM by FRET assay. The test is classed as nucleic-acid assay.

Molecules are shown by their SMILES.

Telomerase reverse transcriptase, sequence (O14746 whole entry): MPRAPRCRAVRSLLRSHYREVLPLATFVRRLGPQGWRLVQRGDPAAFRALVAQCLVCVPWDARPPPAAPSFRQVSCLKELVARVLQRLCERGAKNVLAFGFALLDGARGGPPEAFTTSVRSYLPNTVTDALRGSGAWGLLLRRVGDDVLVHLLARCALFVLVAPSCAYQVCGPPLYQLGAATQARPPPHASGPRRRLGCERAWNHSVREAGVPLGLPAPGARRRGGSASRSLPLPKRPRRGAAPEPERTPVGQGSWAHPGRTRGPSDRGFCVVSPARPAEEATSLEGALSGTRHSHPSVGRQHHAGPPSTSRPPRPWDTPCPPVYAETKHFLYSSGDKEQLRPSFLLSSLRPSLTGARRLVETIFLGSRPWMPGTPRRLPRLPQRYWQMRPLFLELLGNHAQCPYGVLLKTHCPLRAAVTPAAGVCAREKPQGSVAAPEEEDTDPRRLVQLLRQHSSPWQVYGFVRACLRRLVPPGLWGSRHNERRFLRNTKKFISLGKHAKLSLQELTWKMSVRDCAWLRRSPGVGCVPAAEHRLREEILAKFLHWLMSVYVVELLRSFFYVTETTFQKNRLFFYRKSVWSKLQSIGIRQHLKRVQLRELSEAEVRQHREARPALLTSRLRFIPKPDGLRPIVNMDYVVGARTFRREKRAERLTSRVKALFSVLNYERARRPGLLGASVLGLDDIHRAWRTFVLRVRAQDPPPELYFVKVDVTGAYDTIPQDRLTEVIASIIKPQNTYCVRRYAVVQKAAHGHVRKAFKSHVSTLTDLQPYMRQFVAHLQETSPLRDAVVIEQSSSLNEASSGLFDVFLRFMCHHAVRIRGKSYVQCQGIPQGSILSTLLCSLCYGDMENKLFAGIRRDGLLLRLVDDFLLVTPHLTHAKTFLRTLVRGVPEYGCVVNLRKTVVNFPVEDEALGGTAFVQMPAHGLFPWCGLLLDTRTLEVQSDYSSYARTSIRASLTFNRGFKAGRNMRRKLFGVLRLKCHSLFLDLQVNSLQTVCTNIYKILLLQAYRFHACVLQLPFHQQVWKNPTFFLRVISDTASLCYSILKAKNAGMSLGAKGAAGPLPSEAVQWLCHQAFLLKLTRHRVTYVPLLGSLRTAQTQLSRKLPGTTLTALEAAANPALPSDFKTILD

`CCN(CC)CC(=O)NCc1cccc2cc3cccc(CNC(=O)CN(CC)CC)c3nc12`: the ΔTm in test [1] amounted to 2.4 °C.
As to `c1ccc(CNCc2cccc3cc4cccc(CNCc5ccccc5)c4nc23)cc1`, in test [1], the ΔTm was 4.8 °C.
Regarding `CN(C)CCCNCc1cccc2cc3cccc(CNCCCN(C)C)c3nc12`, the ΔTm in test [2] stood at 6.7 °C; in test [1] it was 17.7 °C. Also, the IC50 in test [3] amounted to 0.15 µM.
In the same order, the values of `CN(C)CCC(=O)NCc1cccc2cc3cccc(CNC(=O)CCN(C)C)c3nc12` are 5 °C, 8.1 °C and above 30 µM.
The corresponding values for `O=C(CN1CCCC1)NCc1cccc2cc3cccc(CNC(=O)CN4CCCC4)c3nc12` are 1.4 °C, 2.6 °C and above 30 µM.
Take `O=C(CN1CCCCC1)NCc1cccc2cc3cccc(CNC(=O)CN4CCCCC4)c3nc12`: the values for the ΔTm in test [2], in test [4] and in test [1] were 0.6 °C, 0 °C and 14.6 °C, respectively.
Turning to `C[N+]1(CCC(=O)NCc2cccc3cc4cccc(CNC(=O)CC[N+]5(C)CCCC5)c4nc23)CCCC1`, the ΔTm was 8.7 °C in test [5], 6.8 °C in test [2], 2.3 °C in test [4] and 12.6 °C in test [1]. Besides, the IC50 in test [3] is 4 µM.
`CN(C)c1ccc(Nc2c3ccc(NC(=O)CCN4CCCC4)cc3nc3cc(NC(=O)CCN4CCCC4)ccc23)cc1`: the results for the ΔTm in test [5], in test [2] and in test [4] were 41.1 °C, 34.7 °C and 29.1 °C, respectively. In addition, the IC50 in test [3] amounted to 0.09 µM.
For the molecule `O=C(CCCN1CCCCC1)NCc1cccc2cc3cccc(CNC(=O)CCCN4CCCCC4)c3nc12`, the ΔTm in test [5] is 8.1 °C; in test [2], 3.7 °C; in test [4], 1.3 °C; in test [1] it was 10.2 °C. The molecule further yielded an IC50 in test [3] of 12 µM.
On to `CN1CCN(CCC(=O)NCc2cccc3cc4cccc(CNC(=O)CCN5CCN(C)CC5)c4nc23)CC1`, for which the ΔTm worked out at 2.6 °C in test [5], 0.5 °C in test [2], 0 °C in test [4] and 4.6 °C in test [1]. Further, in test [3], the IC50 is above 30 µM.
The corresponding values for `C[N+]1(CC(=O)NCc2cccc3cc4cccc(CNC(=O)C[N+]5(C)CCCCC5)c4nc23)CCCCC1` are 8.8 °C, 6.8 °C, 2.6 °C, 12.6 °C and 30 µM.
Turning to `CN(C)CCNCc1cccc2cc3cccc(CNCCN(C)C)c3nc12`, the ΔTm in test [2] turned out to be 4 °C; in test [1] it was 10.2 °C. This molecule also came in with an IC50 in test [3] of 5.6 µM.
`NCc1cccc2cc3cccc(CN)c3nc12`: the shift in melting temperature (ΔTm) in test [4] worked out at 0 °C; in test [1], 7.3 °C. Moreover, in test [3], the IC50 is above 30 µM.
As to `CCN(CC)CCC(=O)NCc1cccc2cc3cccc(CNC(=O)CCN(CC)CC)c3nc12`, the ΔTm in test [5] came out at 9.1 °C; in test [2], 7.2 °C; in test [4], 2.6 °C; in test [1] it was 10.7 °C.
As to `O=C(CCN1CCCCC1)NCc1cccc2cc3cccc(CNC(=O)CCN4CCCCC4)c3nc12`, the ΔTm in test [5] was 7.3 °C; in test [2], 6.6 °C; in test [4] it was 2.2 °C; in test [1] it was 10.4 °C. Moreover, the IC50 in test [3] is above 30 µM.
The corresponding values for `C[N+](C)(C)CCC(=O)NCc1cccc2cc3cccc(CNC(=O)CC[N+](C)(C)C)c3nc12` are 8.2 °C, 5.7 °C, 2.1 °C, 11 °C and 3 µM.
Turning to `c1cnc(NCc2cccc3cc4cccc(CNc5ncccn5)c4nc23)nc1`, the ΔTm in test [1] is 0 °C.
Take `O=C(CCN1CCCC1)NCc1cccc2cc3cccc(CNC(=O)CCN4CCCC4)c3nc12`: the ΔTm in test [5] stood at 4.3 °C; in test [2], 2.8 °C; in test [4], 0 °C; in test [1], 7.6 °C. In test [3], this molecule came in with an IC50 of 6 µM.
The corresponding values for `O=C(CCCN1CCCC1)NCc1cccc2cc3cccc(CNC(=O)CCCN4CCCC4)c3nc12` are 11.9 °C, 8.8 °C, 3 °C, 16.4 °C and 13 µM.
Regarding `C[N+](C)(C)CC(=O)NCc1cccc2cc3cccc(CNC(=O)C[N+](C)(C)C)c3nc12`, the ΔTm was determined as 5.9 °C in test [2] and 16.7 °C in test [1]. This molecule came in with an IC50 in test [3] of 7.3 µM.
For `CN(C)CC(=O)NCc1cccc2cc3cccc(CNC(=O)CN(C)C)c3nc12`, the ΔTm in test [1] is 3.6 °C. The molecule also gave an IC50 in test [3] above 30 µM.
Take `C[N+]1(CC(=O)NCc2cccc3cc4cccc(CNC(=O)C[N+]5(C)CCCC5)c4nc23)CCCC1`: the ΔTm in test [5] was found to be 7.4 °C; in test [2], 4.3 °C; in test [4] it was 0.3 °C; in test [1] it was 9.8 °C. Further, in test [3], inhibition was half-maximal at 27 µM (IC50).
